Counter-ions that a name gives are not always drawn.

T1 sequence (P21836 32-614): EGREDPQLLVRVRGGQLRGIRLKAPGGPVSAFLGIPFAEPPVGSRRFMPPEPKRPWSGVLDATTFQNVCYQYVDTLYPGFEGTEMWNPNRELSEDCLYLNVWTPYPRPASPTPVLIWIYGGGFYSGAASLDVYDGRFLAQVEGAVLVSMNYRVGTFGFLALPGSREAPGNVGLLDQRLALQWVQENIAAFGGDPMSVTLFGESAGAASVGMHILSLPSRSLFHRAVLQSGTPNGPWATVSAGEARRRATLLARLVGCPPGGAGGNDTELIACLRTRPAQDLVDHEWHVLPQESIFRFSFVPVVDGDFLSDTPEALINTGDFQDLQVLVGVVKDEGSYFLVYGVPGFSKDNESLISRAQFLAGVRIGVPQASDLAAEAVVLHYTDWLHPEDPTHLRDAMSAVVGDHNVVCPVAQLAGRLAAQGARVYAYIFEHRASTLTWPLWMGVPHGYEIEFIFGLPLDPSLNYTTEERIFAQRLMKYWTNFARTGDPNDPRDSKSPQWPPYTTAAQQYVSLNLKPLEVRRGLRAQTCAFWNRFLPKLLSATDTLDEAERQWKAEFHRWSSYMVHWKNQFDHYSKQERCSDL

One test addresses T1, acetylcholinesterase (Mus musculus, UniProt P21836).
T1 construct: A mouse brain homogenate was used as an acetylcholinesterase source; from tissue; host or cells: mouse brain homogenate
Briefly: biochemical.
Conditions: not given
The format is biochemical.
One may read the IC50 as the concentration at which inhibition is half-maximal. The compound `O=C1c2cccnc2CN1CCC1CCN(Cc2ccccc2)CC1` [Example 5, 2-[4'-(1'-Benzylpiperidine)ethyl]-2,3-dihydro-1-oxypyrrolo[3,4-b]pyridine dihydrochloride] displayed an IC50 of 0.1 µM.

Consider `COc1cc2c(cc1OC)C(=O)N(CCC1CCN(Cc3ccccc3)CC1)C2` [Example 6, 2-[4'-Benzylpiperidine)ethyl]-2,3-dihydro-5,6-dimethoxyoxypyrrolo[3,4-]benzene hydrochloride], for which half-maximal inhibition (IC50) required 0.017 µM.

Compound `CN1CC(=O)N(CCC2CCN(Cc3ccccc3)CC2)c2ccccc2C1` [Example 9, 1-[4'-(1'-Benzylpiperidine)ethyl-1,2,3,4-tetrahydro-4-methyl-5H-[1,4]-benzodiazepin-2-one dihydrochloride] returned an IC50 of 0.051 µM.

In turn, `O=C1CCCc2ccccc2N1CCC1CCN(Cc2ccccc2)CC1` [Example 10, 1-[4'-(1'-Benzylpiperidine)ethyl]-1,2,3,4-tetrahydro-5H-1-benzazepin-2-one hydrochloride] registered an IC50 of 0.009 µM.

The compound `CN1c2ccccc2C(=O)N(CCC2CCN(Cc3ccccc3)CC2)c2ccccc21` [Example 12, 10-[4'-(1'-Benzylpiperidine)ethyl]-10,11-dihydro-5-methyl-5H-dibenzo[b,e][1,4]diazepin-11-one hydrochloride] displayed an IC50 of 0.04 µM.

The compound `O=C(NCCC1CCN(Cc2ccc(O)cc2)CC1)c1cnc2ccccc2n1` [Example 14, N-[4'-(1'-(p-Hydroxybenzyl)piperidine)ethyl]-2-quinoxalinecarboxylic amide hydrochloride] returned an IC50 of 0.038 µM.

Take `COc1cc(OC)cc(N(CCC2CCN(Cc3ccccc3)CC2)C(=O)C=Cc2ccc(F)cc2)c1` [Example 18, N-(3'5'-Dimethoxyphenyl)-N-[4'-(1'--benzylpiperidyl)-ethyl]-4-fluorocinnamamide hydrichloride]: half-maximal inhibition (IC50) required 0.68 µM.

With `O=C(NCC1CCN(Cc2ccccc2)C1)c1ccccc1` (centres unmarked) [Example 21, N-[3'-(1'-Benzylpyrrolidine)methyl]benzamide hydrochloride], 50 µM corresponded to half-maximal inhibition (IC50).

The compound `O=C(NCCC1CCN(Cc2ccccc2)CC1)c1ccoc1` [Example 24, N-[4'-(1'-Benzylpiperidine)ethyl]-3-furancarboxylic amide hydrochloride] yielded an IC50 of 1.1 µM.

As to `O=C(CCCC1CCN(Cc2ccccc2)CC1)c1ccncc1` [Example 45], the IC50 was found to be 0.36 µM.

Turning to `O=C(CCC1CCN(Cc2ccccc2)CC1)Nc1ccncc1` [Example 48], the IC50 came to 0.019 µM.

`COc1ccc2c(c1)CCCC(=O)N2CCC1CCN(Cc2ccccc2)CC1` [Example 62] displayed an IC50 of 0.0075 µM.

`COc1cccc2c1CCCC(=O)N2CCC1CCN(Cc2ccccc2)CC1` [Example 65] displayed an IC50 of 0.0016 µM.

`COc1cc2c(cc1OC)C(=O)N(C)C(CCC1CCN(Cc3ccccc3)CC1)C2` (centres unmarked) [Example 67]: the IC50 stood at 0.1 µM.

`CN1CC(=O)N(CCC2CCN(Cc3ccccc3)CC2)c2ccccc2C1=O` [Example 70] gave an IC50 of 0.28 µM.

Consider `CCOC(=O)c1nccnc1C(=O)NCCC1CCN(Cc2ccccc2)CC1` [Example 72], for which the IC50 amounted to 0.02 µM.

Regarding `O=C(c1cnccn1)N(CCC1CCN(Cc2ccccc2)CC1)c1ccccc1` [Example 95], the IC50 is 0.085 µM.

In turn, `CC(=O)N(CCC1CCN(Cc2ccccc2)CC1)c1ccncc1` [Example 101] came in with an IC50 of 0.11 µM.

With `CN(CCC1CCN(Cc2ccccc2)CC1)C(=O)c1ccco1` [Example 120], the IC50 was 0.19 µM.

Take `O=C(NCCC1CCN(Cc2ccco2)CC1)c1ccccc1` [Example 124]: the midpoint of inhibition, the IC50, lay at 2.8 µM.

Compound `O=C1c2ccccc2Oc2ccccc2N1CCC1CCN(Cc2ccccc2)CC1` [Example 176] displayed an IC50 of 0.004 µM.

On to `CCOC(=O)N1CCC(CC2Cc3cc(OC)c(OC)cc3C2=O)CC1` (centres unmarked) [Example 182, 4-[(5,6-Dimethoxy-1-indanon)-2-yl]methyl-1-ethoxycarbonylpiperidine], for which the IC50 turned out to be 0.8 µM.

In turn, `CCOC(=O)N1CCC(CC2=Cc3cc(OC)c(OC)cc3C2=O)CC1` [Example 183, 4-[(5,6-Dimethoxy-1-indenon)-2-yl]methyl-1-ethoxycarbonylpiperidine] gave an IC50 of 5.3 µM.

Compound `O=C1C(=CC2CCN(Cc3ccccc3)CC2)C(=O)c2ccccc21` [Example 184, 1-Benzyl-4-[(1,3-indanedion)-2-ylidenyl]methylpiperidine] gave a concentration for half-maximal inhibition (IC50) above 5 µM.

`COc1cc2c(cc1OC)CC(CC1CCN(Cc3ccccc3)CC1)=C2` [Example 185, 1-Benzyl-4-[(5,6-dimethoxyinden)-2-yl]methylpiperidine hydrochloride] had an IC50 of 0.00082 µM.

The compound `COc1cc2c(cc1OC)C(=O)C(=CCCC1CCN(Cc3ccccc3)CC1)C2` [Example 186, 1-Benzyl-4-[3-[(5,6-dimethoxy-1-indanon)-2-ylidenyl]]propylpiperidine hydrochloride] registered an IC50 of 0.0015 µM.

Turning to `COc1cc2c(cc1OC)C(=O)C(CCCC1CCN(Cc3ccccc3)CC1)C2` (centres unmarked) [Example 187, 1-Benzyl-4-[3-[(5,6-dimethoxy-1-indanon)-2-yl]]propylpiperidine hydrochloride], the IC50 is 4.4 µM.

`O=C1c2cc(F)ccc2CC1CC1CCN(Cc2ccccc2)CC1` (centres unmarked) [Example 193] gave an IC50 of 0.2 µM.

`Cc1ccc2c(c1)C(=O)C(CC1CCN(Cc3ccccc3)CC1)C2` (centres unmarked) [Example 194] gave an IC50 of 0.069 µM.

For the compound `Cc1cccc2c1CC(CC1CCN(Cc3ccccc3)CC1)C2=O` (centres unmarked) [Example 195], the IC50 was found to be 0.0071 µM.

For the compound `COc1cc2c(cc1O)C(=O)C(CC1CCN(Cc3ccccc3)CC1)C2` (centres unmarked) [Example 196], half-maximal inhibition (IC50) was put at 0.0013 µM.

The compound `COc1cc2c(cc1O)CC(CC1CCN(Cc3ccccc3)CC1)C2=O` (centres unmarked) [Example 197] displayed an IC50 of 0.38 µM.

`CCOc1cc2c(cc1OCC)C(=O)C(CC1CCN(Cc3ccccc3)CC1)C2` (centres unmarked) [Example 198] registered an IC50 of 0.0054 µM.

Compound `O=C1c2cc3c(cc2CC1CC1CCN(Cc2ccccc2)CC1)OCO3` (centres unmarked) [Example 199] showed an IC50 of 0.023 µM.

With `CC(CC1CCN(Cc2ccccc2)CC1)C(=O)c1ccccc1` (centres unmarked) [Example 202], half-maximal inhibition (IC50) required 1.2 µM.

As to `COc1cc2c(cc1OC(C)C)CC(CC1CCN(Cc3ccccc3)CC1)C2=O` (centres unmarked) [Example 203], the IC50 came out at 0.009 µM.

As to `COc1cccc2c1CC(=CC1CCN(Cc3ccccc3)CC1)C2=O` [Example 207], half-maximal inhibition (IC50) required 0.049 µM.

As for `COc1ccc2c(c1OC)CC(=CC1CCN(Cc3ccccc3)CC1)C2=O` [Example 208], the IC50 is 0.062 µM.

On to `COc1ccc2c(c1OC)C(=O)C(=CC1CCN(Cc3ccccc3)CC1)C2` [Example 209], for which it took 0.43 µM to reach half-maximal inhibition (IC50).

Compound `COc1cc2c(c(OC)c1OC)C(=O)C(=CC1CCN(Cc3ccccc3)CC1)C2` [Example 210] registered an IC50 of 0.06 µM.

Compound `O=C1C(=CC2CCN(Cc3ccccc3)CC2)Cc2ccc(F)cc21` [Example 211] showed an IC50 of 2 µM.

With `Cc1ccc2c(c1)C(=O)C(=CC1CCN(Cc3ccccc3)CC1)C2` [Example 212], the IC50 came to 0.5 µM.

`Cc1cccc2c1CC(=CC1CCN(Cc3ccccc3)CC1)C2=O` [Example 213]: inhibition was half-maximal at 0.05 µM (IC50).

The same test, now with this note: in vitro, mouse brain homogenate; Table 10; read-out: Inhibitory activity on AChE IC50.
Consider `COc1cc2c(cc1OC)C(=O)C(CC1CCNCC1)C2` (centres unmarked) [Example 179, 4-[(5,6-Dimethoxy-1-indanon)-2-yl]methylpiperidine hydrochloride], for which the IC50 was 5.4 µM.

`COc1cc2c(c(OC)c1OC)C(=O)C(CC1CCN(Cc3ccccc3)CC1)C2` (centres unmarked) [Example 192]: the 50% inhibitory concentration (IC50) stood at 0.013 µM.

The test is the same for the next values; noted with them: read-out: AChE inhibitory activity IC50.
On to `O=C1Nc2ccccc2CN1CCC1CCN(Cc2ccccc2)CC1` [Example 8], for which the IC50 was determined as 0.013 µM.

For the compound `O=C1c2ccccc2CCc2ccccc2N1CCC1CCN(Cc2ccccc2)CC1` [Example 11, N-[4-(1'-Benzylpiperidyl)ethyl]-5,6,11,12-tetrahydrodibenzo[b,f]azocin-6-one hydrochloride], the IC50 stood at 0.068 µM.

For `CC(=O)N(CCC1CCN(Cc2ccccc2)CC1)c1ccccc1` [Example 17, N-[4'-(1'-Benzylpiperidyl)ethyl]acetanilide], the IC50 turned out to be 0.052 µM.

As for `O=C(CCC1CCN(Cc2ccccc2)CC1)Nc1ccccc1` [Example 20, 4-(1-Benzylpiperidine)propanailide hydrochloride], the IC50 amounted to 0.54 µM.

With `COc1ccc(C(=O)CCCC2CCN(Cc3ccccc3)CC2)cc1` [Example 23, 4-[4'-N-Benzyl)piperidyl]-p-methoxybutyrophenone hydrochloride], the IC50 was 0.072 µM.

As to `CN(CCC1CCN(CC2CCCCC2)CC1)C(=O)c1ccccc1` [Example 27, N-[4'-(1'-Cyclohexylmethylpiperidyl)ethyl]-N-methylbenzamide hydrochloride], the IC50 stood at 0.41 µM.

As to `COc1cc2c(c(OC)c1)C(=O)C(CC1CCN(Cc3ccccc3)CC1)C2` (centres unmarked) [Example 31], the IC50 worked out at 0.025 µM.

Turning to `O=C1c2ccccc2NCN1CCC1CCN(Cc2ccccc2)CC1` [Example 52], the half-inhibitory concentration (IC50) is 0.8 µM.

On to `O=C1c2ccccc2CCN1CCC1CCN(Cc2ccccc2)CC1` [Example 54], for which the IC50 amounted to 1 µM.

With `O=C1Cc2ccccc2CN1CCC1CCN(Cc2ccccc2)CC1` [Example 56], the half-maximal inhibitory concentration (IC50) was found to be 0.017 µM.

With `O=C(c1ccc(F)cc1)N(CCC1CCN(Cc2ccccc2)CC1)c1ccccc1` [Example 89], the concentration for half-maximal inhibition (IC50) was 0.018 µM.

The test is the same for the next values; noted with them: read-out: Inhibitory activity on AChE IC50.
On to `COc1cc2c(cc1OC)C(=O)C(CC1CCN(Cc3cccc(F)c3)CC1)C2` (centres unmarked) [Example 180, 1-(3-Fluorobenzyl)-4-[(5,6-dimethoxy-1-indanon)-2-yl]methylpiperidine hydrochloride], for which the IC50 was 0.001 µM.

Consider `COc1ccc2c(c1)C(=O)C(CC1CCN(Cc3ccccc3)CC1)C2` (centres unmarked) [Example 188], for which the IC50 came out at 0.081 µM.

As to `COc1cccc2c1CC(CC1CCN(Cc3ccccc3)CC1)C2=O` (centres unmarked) [Example 189], the IC50 was 0.012 µM.

For `COc1cc2c(cc1OC)C(=O)C(CCCCC1CCN(Cc3ccccc3)CC1)C2` (centres unmarked) [Example 204], the half-maximal inhibitory concentration (IC50) was found to be 0.035 µM.

`COc1cc2c(cc1OC)C(=O)C(CCCCCC1CCN(Cc3ccccc3)CC1)C2` (centres unmarked) [Example 205]: the IC50 is 0.014 µM.

Consider `COc1ccc2c(c1)C(=O)C(=CC1CCN(Cc3ccccc3)CC1)C2` [Example 206], for which the IC50 turned out to be 0.41 µM.

Source of the values: patent US4895841A (priority 1987, dated 1990).
